# Source: ChEMBL document CHEMBL3885861, “Open TG-GATES”
# Organism: Rattus norvegicus
# Test: Open TG-GATES - Regimen: Daily Repeat
# Type: toxicity, organism-based, Sprague-Dawley
# Parameters: regimen Daily Repeat, gender Male, age 6 weeks
# Details: in vivo, po, 30 mg/kg, route gavage, dose level Low; for APTT / Bas / Eos / Fbg / Hb / Ht / Lym / MCH / MCHC / MCV / Mono / Neu / PT / Plat / RBC / Ret / WBC: tissue Blood
# [1] = 72 h, tissue Kidney, time 3 day
# [2] = 72 h, tissue Plasma, time 3 day
smiles,measurement,setting,value
Brc1ccccc1 [BROMOBENZENE],TERMINAL_BW,"72 h, time 3 day",211.4 g
same,APTT,"72 h, time 3 day",16.2 s
same,Bas,"72 h, time 3 day",0%
same,Eos,"72 h, time 3 day",1%
same,Fbg,"72 h, time 3 day",274.2 mg/dL
same,Hb,"72 h, time 3 day",13.2 g/dL
same,Ht,"72 h, time 3 day",38.9%
same,Lym,"72 h, time 3 day",76.6%
same,MCH,"72 h, time 3 day",21.2 pg
same,MCHC,"72 h, time 3 day",34%
same,MCV,"72 h, time 3 day",62.4 fL
same,Mono,"72 h, time 3 day",4.2%
same,Neu,"72 h, time 3 day",17.8%
same,PT,"72 h, time 3 day",12 s
same,Plat,"72 h, time 3 day",113.4 x10_4/uL
same,RBC,"72 h, time 3 day",624.8 x10_4/ul
same,Ret,"72 h, time 3 day",7.4%
same,WBC,"72 h, time 3 day",117.5 x10_2/uL
same,KIDNEY_L,[1],0.9 g
same,KIDNEY_R,[1],0.9 g
same,KIDNEY_TOTAL,[1],1.8 g
same,LIVER,"72 h, tissue Liver, time 3 day",10.6 g
same,A/G,[2],0.9
same,ALP,[2],1588.2 IU/L
same,ALT,[2],54.2 IU/L
same,AST,[2],70.2 IU/L
same,BUN,[2],13.8 mg/dL
same,CRE,[2],0.2 mg/dL
same,Ca,[2],10.4 mg/dL
same,Cl,[2],105.2 meq/L
same,DBIL,[2],0.012 mg/dL
same,GLC,[2],182 mg/dL
same,IP,[2],7.3 mg/dL
same,K,[2],4.1 meq/L
same,LDH,[2],77 IU/L
same,Na,[2],142 meq/L
same,PL,[2],154 mg/dL
same,RALB,[2],2.6 g/dL
same,TBIL,[2],0.05 mg/dL
same,TC,[2],84.6 mg/dL
same,TG,[2],76 mg/dL
same,TP,[2],5.6 g/dL
same,gamma-GTP,[2],1.2 IU/L
same,TERMINAL_BW,"[…], time 7 day",250.4 g
same,TERMINAL_BW,"[…], time 14 day",301.3 g
same,TERMINAL_BW,"[…], time 28 day",378.5 g
same,APTT,"[…], time 7 day",16.1 s
same,Bas,"[…], time 7 day",0%
same,Eos,"[…], time 7 day",1%
same,Fbg,"[…], time 7 day",272.4 mg/dL
same,Hb,"[…], time 7 day",12.9 g/dL
same,Ht,"[…], time 7 day",37.6%
same,Lym,"[…], time 7 day",78%
same,MCH,"[…], time 7 day",21.3 pg
same,MCHC,"[…], time 7 day",34.4%
same,MCV,"[…], time 7 day",62 fL
same,Mono,"[…], time 7 day",2.6%
same,Neu,"[…], time 7 day",18%
same,PT,"[…], time 7 day",12.7 s
same,Plat,"[…], time 7 day",117.9 x10_4/uL
same,RBC,"[…], time 7 day",606.8 x10_4/ul
same,Ret,"[…], time 7 day",6.2%
same,WBC,"[…], time 7 day",100.6 x10_2/uL
same,APTT,"[…], time 14 day",16 s
same,Bas,"[…], time 14 day",0%
same,Eos,"[…], time 14 day",0.8%
same,Fbg,"[…], time 14 day",316.2 mg/dL
same,Hb,"[…], time 14 day",14.2 g/dL
same,Ht,"[…], time 14 day",41.2%
same,Lym,"[…], time 14 day",81.6%
same,MCH,"[…], time 14 day",20.5 pg
same,MCHC,"[…], time 14 day",34.5%
same,MCV,"[…], time 14 day",59.2 fL
same,Mono,"[…], time 14 day",2.6%
same,Neu,"[…], time 14 day",14.4%
same,PT,"[…], time 14 day",11.7 s
same,Plat,"[…], time 14 day",116 x10_4/uL
same,RBC,"[…], time 14 day",696.6 x10_4/ul
same,Ret,"[…], time 14 day",4.2%
same,WBC,"[…], time 14 day",87.7 x10_2/uL
same,APTT,"[…], time 28 day",16.4 s
same,Bas,"[…], time 28 day",0.2%
same,Eos,"[…], time 28 day",1.2%
same,Fbg,"[…], time 28 day",305.8 mg/dL
same,Hb,"[…], time 28 day",15 g/dL
same,Ht,"[…], time 28 day",42.8%
